Legend:
[1] = system: Glo-Response ARE-luc2P HEK293 cell line; assay: ARE luciferase reporter cell-based assay; conditions: Homo sapiens, HEK293, 24 h, average of results obtained;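 further: luciferase signal tracks Nrf2 activation of the ARE once compounds disrupt KEAP1-Nrf2 binding, read with One-Glo reagent, DMSO serving as low control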
[2] = target: Kelch domain of human KEAP1 (321-624 aa) (Homo sapiens (Human), UniProt Q14145); assay: KEAP1 KELCH ThermoFluor binding assay; conditions: KEAP Kelch […], 1,8-ANS, pH 7.0, average of results obtained, read-out: Tf Kd;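 further: Ligand-induced melting temperature shift of E. coli-expressed KEAP1 Kelch protein, Kd estimated from concentration-response curves of ΔTm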
Sequence of Kelch domain of human KEAP1 (321-624 aa) (Q14145 321-624): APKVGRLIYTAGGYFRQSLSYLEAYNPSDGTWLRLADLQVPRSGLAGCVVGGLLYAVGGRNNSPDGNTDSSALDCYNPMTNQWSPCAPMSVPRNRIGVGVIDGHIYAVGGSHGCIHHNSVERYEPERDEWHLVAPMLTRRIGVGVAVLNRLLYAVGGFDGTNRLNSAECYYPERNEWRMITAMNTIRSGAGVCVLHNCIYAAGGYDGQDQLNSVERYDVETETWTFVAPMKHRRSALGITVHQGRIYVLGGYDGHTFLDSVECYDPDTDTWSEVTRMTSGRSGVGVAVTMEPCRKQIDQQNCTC

Row | Compound | EC50 [1] [nM] | Kd [2] [nM]
1 | CCn1nnc2c(C)c([C@@H](c3ccc(C)c(CN4CC5(CCOCC5)Oc5ncccc5S4(=O)=O)c3)C(C)(C)C(=O)O)ccc21 (single isomer, unassigned) [Example 16, (*R)-3-(3-((1′,1′-Dioxido-2,3,5,6-tetrahydrospiro[pyran-4,4′-pyrido[2,3-b][1,4,5]oxathiazepin]-2′(3′H)-yl)methyl)-4-methylphenyl)-3-(1-ethyl-4-methyl-1H-benzo[d][1,2,3]triazol-5-yl)-2,2-dimethylpropanoic Acid] | 233 | 838
2 | Cc1ccc([C@@H](CC(=O)O)c2ccn3c(C(F)(F)F)nnc3c2C)nc1CN1CC2(CC2)Oc2ncc(F)cc2S1(=O)=O (single isomer, unassigned) [Example 509, (*S)-3-(6-((8′-Fluoro-1′,1′-dioxidospiro[cyclopropane-1,4′-pyrido[2,3-b][1,4,5]oxathiazepin]-2′(3′H)-yl)methyl)-5-methylpyridin-2-yl)-3-(8-methyl-3-(trifluoromethyl)-[1,2,4]triazolo[4,3-a]pyridin-7-yl)propanoic Acid] | 70.4 | < 1
3 | Cc1ccc(C(c2ccn3c(C(F)(F)F)nnc3c2C)C(C)(C)C(=O)O)cc1CN1CC2(CCOCC2)Oc2nc(OCCN3CCOCC3)ccc2S1(=O)=O (racemic) [Example 46] | 71.9 | < 1
4 | Cc1ccc([C@H](CC(=O)O)c2ccn3c(C(F)(F)F)nnc3c2C)cc1CN1CC2(CC2)Oc2nc(NCCO)ccc2S1(=O)=O (single isomer, unassigned) [Example 101, (*S)-3-(3-((7′-((2-Hydroxyethyl)amino-1′,1′-dioxidospiro[cyclopropane-1.4′-pyrido[2,3-b][1,4,5]oxathiazepin]-2′(3′H)-yl)methyl)-4-methylphenyl)-3-(8-methyl-3-(trifluoromethyl)-[1,2,4]triazolo[4,3-a]pyridinn-7-yl)propanoic Acid] | 577 | < 1
5 | Cc1ccc([C@H](c2ccn3c(C(F)(F)F)nnc3c2C)C(C)(C)C(=O)O)cc1CN1C[C@@H]2CCCCN2c2ncc(C#N)cc2S1(=O)=O (single isomer, unassigned) [Example 425, (*R)-3-(3-(((*S)-3-cyano-5,5-dioxido-7,7a,8,9,10,11-hexahydro-6H-dipyrido[2,1-d:2′,3′-f][1,2,5]thiadiazepin-6-yl)methyl)-4-methylphenyl)-2,2-dimethyl-3-(8-methyl-3-(trifluoromethyl)-[1,2,4]triazolo[4,3-a]pyridin-7-yl)propanoic Acid] | 96.9 | < 1
6 | Cc1ccc([C@@H](c2ccn3c(C(F)(F)F)nnc3c2C)C(C)(C)C(=O)O)nc1CN1CC2(CCOCC2)Oc2ncccc2S1(=O)=O (single isomer, unassigned) [Example 38, (*S)-3-(6-((1′,1′-Dioxido-2,3,5,6-tetrahydrospiro[pyran-4,4′-pyrido[2,3-b][1,4,5]oxathiazepin]-2′(3′H)-yl)methyl)-5-methylpyridin-2-yl)-2,2-dimethyl-3-(8-methyl-3-(trifluoromethyl)-[1,2,4]triazolo[4,3-a]pyridin-7-yl)propanoic Acid] | 7.2 | < 1
7 | CC[C@@H]1CN(Cc2cc(C(CC(=O)O)c3ccn4c(C)nnc4c3)ccc2C)S(=O)(=O)c2cccnc2O1 (mixture of isomers) [Example 162, (R/S)-3-(3-(((R)-4-Ethyl-1,1-dioxido-3,4-dihydro-2H-pyrido[2,3-b][1,4,5]oxathiazepin-2-yl)methyl)-4-methylphenyl)-3-(3-methyl-[1,2,4]triazolo[4,3-a]pyridin-7-yl)propanoic Acid] | 2440 | < 1
8 | Cc1ccc([C@H](CC(=O)O)c2ccc3c(nnn3CC3CC3)c2C(F)F)cc1CN1CC2CCCN2c2ncccc2S1(=O)=O (stereo in doubt) [Example 66, (*S)-3-(1-(Cyclopropylmethyl)-4-(difluoromethyl-1H-benzo[d][1,2,3]triazol-5-yl)-3-(3-((R-5,5-dioxido-7a,8,9,10-tetrahydropyridi[2,3-f]pyrrolo[2,1-d][1,2,5]thiadiazepin-6(7H)-yl)methyl)-4-methylphenyl)propanoic Acid] | 260 | 1
9 | Cc1ccc([C@@H](c2ccn3c(C(F)(F)F)nnc3c2C)C(C)(C)C(=O)O)cc1CN1CC2(CCOCC2)Oc2ncccc2S1(=O)=O (single isomer, unassigned) [Example 409, (*S)-3-(3-((1′,1′-dioxido-2,3,5,6-tetrahydrospiro[pyran-4,4′-pyrido[2,3-b][1,4,5]oxathiazepin]-2′(3′H)-yl)methyl)-4-methylphenyl)-2,2-dimethyl-3-(8-methyl-3-(trifluoromethyl)-[1,2,4]triazolo[4,3-a]pyridin-7-yl)propanoic Acid] | 2.64 | < 1
10 | CCn1nnc2c(C)c([C@H](c3cnc(C)c(CN4CC5(CCOCC5)Oc5ncc(C)cc5S4(=O)=O)c3)C(C)(C)C(=O)O)ccc21 (single isomer, unassigned) [Example 63, (*R)-3-(1-Ethyl-4-methyl-1H-benzo[d][1,2,3]triazol-5-yl)-2,2-dimethyl-3-(6-methyl-5-((8′-methyl-1′,1′-dioxido-2,3,5,6-tetrahydrospiro[pyran-4,4′-pyrido[2,3-b][1,4,5]oxathiazepin]-2′(3′H)-yl)methyl)pyridin-3-yl)propanoic Acid] | 3280 | 14500
11 | Cc1ccc(C(CC(=O)O)c2ccc3c(nnn3CC3CC3)c2C(F)F)cc1CN1CC2CCCN2c2ncccc2S1(=O)=O (centres unmarked) [Example 65] | 360 | 2.5
12 | Cc1ccc([C@@H](CC(=O)O)c2ccn3c(C(F)(F)F)nnc3c2C)nc1CN1C[C@@H]2CCCCN2c2ncc(Cl)cc2S1(=O)=O (single isomer, unassigned) [Example 519, (*S)-3-(6-(((*S)-3-Chloro-5,5-dioxido-7,7a,8,9,10,11-hexahydro-6H-dipyrido[2,1-d:2′,3′-f][1,2,5]thiadiazepin-6-yl)methyl)-5-methylpyridin-2-yl)-3-(8-methyl-3-(trifluoromethyl)-[1,2,4]triazolo[4,3-a]pyridin-7-yl)propanoic Acid] | 16 | < 1
13 | CCn1nnc2c(C)c([C@@H](c3cc(CN4CC5(CC5)Oc5ncc(C)cc5S4(=O)=O)c(C)cn3)C(C)(C)C(=O)O)ccc21 (single isomer, unassigned) [Example 665, (*R)-3-(1-Ethyl-4-methyl-1H-benzo[d][1,2,3]triazol-5-yl)-2,2-dimethyl-3-(5-methyl-4-((8′-methyl-1′,1′-dioxidospiro[cyclopropane-1,4′-pyrido[2,3-b][1,4,5]oxathiazepin]-2′(3′H)-yl)methyl)pyridin-2-yl)propanoic Acid] | 497 | 180
14 | Cc1ccc([C@@H](c2ccn3c(C4CC4)nnc3c2C)C(C)(C)C(=O)O)cc1CN1CC2(COC2)Oc2ncccc2S1(=O)=O (single isomer, unassigned) [Example 621, (*S)-3-(3-Cyclopropyl-8-methyl-[1,2,4]triazolo[4,3-a]pyridin-7-yl)-3-(3-((1′,1′-dioxidospiro[oxetane-3,4′-pyrido[2,3-b][1,4,5]oxathiazepin]-2′(3′H)-yl)methyl)-4-methylphenyl)-2,2-dimethylpropanoic Acid] | 5640 | < 1
15 | Cc1ccc([C@H](c2ccn3c(C(F)(F)F)nnc3c2C)C(C)(C)C(=O)O)cc1CN1C[C@H]2CCCCN2c2ncc(C#N)cc2S1(=O)=O (single isomer, unassigned) [Example 423, (*R)-3-(3-(((*R)-3-cyano-5,5-dioxido-7,7a,8,9,10,11-hexahydro-6H-dipyrido[2,1-d:2′,3′-f][1,2,5]thiadiazepin-6-yl)methyl)-4-methylphenyl)-2,2-dimethyl-3-(8-methyl-3-(trifluoromethyl)-[1,2,4]triazolo[4,3-a]pyridin-7-yl)propanoic Acid] | 409 | 586
16 | Cc1ccc(C(CC(N)=O)c2ccn3c(C(F)(F)F)nnc3c2C)cc1CN1C[C@@H]2CCCCN2c2ncccc2S1(=O)=O (stereo in doubt) [Example 547, 3-(3-(((*S)-5,5-Dioxido-7,7a,8,9,10,11-hexahydro-6H-dipyrido[2,1-d:2′,3′-f][1,2,5]thiadiazepin-6-yl)methyl)-4-methylphenyl)-3-(8-methyl-3-(trifluoromethyl)-[1,2,4]triazolo[4,3-a]pyridin-7-yl)propanamide] | 9640 | 602
17 | CCn1nnc2c(C)c([C@H](CC(=O)O)c3ccc(C)c(CN4CC5(COC5)Oc5ccccc5S4(=O)=O)n3)ccc21 (single isomer, unassigned) [Example 238, (*S)-3-(6-((1,1-Dioxidospiro[benzo[b][1,4,5]oxathiazepine-4,3′-oxetan]-2(3H)-yl)methyl)-5-methylpyridin-2-yl)-3-(1-ethyl-4-methyl-1H-benzo[d][1,2,3]triazol-5-yl)propanoic Acid] | 9.7 | < 1
18 | Cc1ccc([C@H](CC(=O)O)c2ccn3c(C(F)(F)F)nnc3c2C)cc1CN1C[C@H]2CCCCN2c2ccccc2S1(=O)=O (single isomer, unassigned) [Example 300, (*S)-3-(3-(((*R)-5,5-Dioxido-7,7a,8,9,10,11-hexahydro-6H-benzo[f]pyrido[2,1-d][1,2,5]thiadiazepin-6-yl)methyl)-4-methylphenyl)-3-(8-methyl-3-(trifluoromethyl)-[1,2,4]triazolo[4,3-a]pyridin-7-yl)propanoic Acid] | 5 | < 1
19 | Cc1ccc(C(CC(=O)O)c2cc(OC(F)F)c3c(c2)nnn3C)cc1CN1C[C@H]2CCCCN2c2ncccc2S1(=O)=O (stereo in doubt) [Example 1, 3-(7-(Difluoromethoxy)-1-methyl-1H-benzo[d][1,2,3]triazol-5-yl)-3-(3-(((*R)-5,5-dioxido-7,7a,8,9,10,11-hexahydro-6H-dipyrido[2,1-d:2′,3′-f][1,2,5]thiadiazepin-6-yl)methyl)-4-methylphenyl)propanoic acid] | 35 | 0.042

— US10947252B2, “Inhibitors of KEAP1-Nrf2 protein-protein interaction” (Janssen Pharmaceutica NV, priority 2018, dated 2021)
